For data set [1], the system named is MCF-7 breast cancer cell line. The data set can be described thus: Antiproliferation study, MTT cell viability assay. It is filed as cell-based. Particulars: Homo sapiens, MCF7, 72 h, antiproliferative activity, MTT, 72 h; read-out: IC50 (μM) MCF-7 cell line. The protocol: All assays were performed in triplicate for the determination of mean values reported. Compounds were assayed as the free bases isolated from reaction. The human breast tumour cell line MCF-7 was cultured in Eagles minimum essential medium in a […] atmosphere with 10% fetal bovine serum, 2 mM L-glutamine and 100 μg/mL penicillin/streptomycin. The medium was supplemented with 1% non-essential amino acids. MDA-MB-231 cells were maintained in Dulbecco's Modified Eagle's medium (DMEM), supplemented with 10% (v/v) Fetal bovine serum, 2 mM L-glutamine and 100 μg/mL penicillin/streptomycin (complete medium). Cells were trypsinised and seeded at a density of 2.5×10^4 cells/ml in a 96-well plate and incubated at 37° C., […] atmosphere for 24 h. […] Control wells contained the equivalent volume of the vehicle ethanol (1% v/v). The culture medium was then removed and the cells washed with 100 μL phosphate buffered saline (PBS) and 50 μL MTT added, to reach a final concentration of 1 mg/mL MTT added. Cells were incubated for 2 h in darkness at 37° C. At this point solubilization was begun through the addition of 200 μL DMSO and the cells maintained at room temperature in darkness for 20 min to ensure thorough colour diffusion before reading the absorbance. The absorbance value of control cells (no added compound) was set to 100% cell viability and from this graphs of absorbance versus cell density per well were prepared to assess cell viability and from these, graphs of percentage cell viability versus concentration of subject compound added were drawn.

For data set [2], the system named is A2780-parental. Nature of the data set: Alamar Blue cell viability assay. It is filed as cell-based. To be noted: 72 h.
Description: (§1) Cells were exposed to multiple concentrations of the indicated compound for 72 h. Cell viability was assessed using the Alamar blue assay and respective IC50 values were calculated. The resistance factor (RF) was calculated by dividing the IC50 of the resistant cell line/IC50 of the parental cell line.
(§2) A2780-parental and A2780-ADR resistant cells were provided by the Beatson Institute of Cancer Research, Glasgow. […] All cells were cultured in RPMI-1640 Glutamax medium supplemented with 10% FCS media, 100 units/ml penicillin and 100 μg/mIstreptomycin. Cells were maintained at 37° C. in 5% CO2 in a humidified incubator.
(§3) The reduction of Alamar Blue is proportional to the number of viable cells. Cells (200 μl) were plated in triplicate in a 96-well plates (K562, 100,000/ml; HL-60, 300,000/ml; A-2780 50,000/ml). A-2780 cells were plated 24 h prior to treatment. Suspension cells were plated in the log phase of growth and treated immediately. The cells were then treated with either medium alone, vehicle (1% ethanol v/v or 0.1% DMSO v/v) or with a range of concentrations of drug [0.001-10 μM]. After 72 h, Alamar Blue was added to each well (10% of final volume) and fluorescence was read using a 96-well fluorometer with excitation at 530 nm and emission of 590 nm. The blank solution consisted of medium and Alamar Blue and the blank solution was used to calibrate the spectrophotometer to zero absorbance. The relative cell viability (%) related to control wells and was calculated by [A]test/[A]control×100 where [A]test is the absorbance of the drug treated cells and [A]control the absorbance of the vehicle control treated cells. Dose response curves were plotted and IC50 values (concentration of drug resulting in 50% reduction in cell survival) were obtained using the commercial software package Prism (GraphPad Software, Inc., La Jolla, USA). Experiments were performed in triplicate on at least three separate occasions.
Data set [3] concerns A2780-ADR (PGP). The data set can be described thus: Alamar Blue cell viability assay. Particulars: for IC50: A2780 ADR, 72 h; for RF: IC50 A2780-ADR (PGP) / IC50 A2780-parental.
Description: (§4) Three drug resistant cell lines and respective parental cell lines were assessed. […] Western blot analysis confirmed the overexpression of p-glycoprotein and BCRP in respective cell lines.
as §1
(§5) All cells were cultured in RPMI-1640 Glutamax medium supplemented with 10% FCS media, 100 units/ml penicillin and 100 μg/mIstreptomycin. Cells were maintained at 37° C. in 5% CO2 in a humidified incubator.
as §3
Data set [4] concerns HL-60 parental. Nature of the data set: Alamar Blue cell viability assay. It counts as cell-based. To be noted: Homo sapiens, 72 h.
Description: as §1, §2, §3
In data set [5] the test system is HL-60-MDR(PGP). Nature of the data set: Alamar Blue cell viability assay. Particulars: for IC50: Homo sapiens, HL60/MDR, HL-60-MDR(PGP), 72 h, Alamar blue, read-out: IC50; for RF: IC50 HL-60-MDR(PGP) / IC50 HL-60 parental. It counts as cell-based, human.
Description: as §4, §1, §5, §3
Data set [6] can be described thus: Stability by HPLC at three pH values. It counts as physicochemical. The protocol:
The stability of β-lactam compounds 4, 8 and 12 was assessed by HPLC at three different pH values. […] The half-lives of 8 and 12 were both greater than 24 hours at all pH values. The stability of three ester prodrug derivatives of 4, i.e. 29, 30 and 31, was also assessed (FIG. 6).

Turning to `COc1ccc(C2C(C)C(=O)N2c2cc(OC)c(OC)c(OC)c2)cc1O` (centres unmarked) [Compound 28, 4-(3-Hydroxy-4-methoxyphenyl)-3-methyl-1-(3,4,5-trimethoxyphenyl)-azetidin-2-one], the IC50 in data set [1] amounted to 0.01 µM. Same read-out and setting: with `COc1ccc(C2C(C(O)C=Cc3ccccc3)C(=O)N2c2cc(OC)c(OC)c(OC)c2)cc1O` (centres unmarked) [Compound 7, 4-(3-Hydroxy-4-methoxy-phenyl)-3-(1-hydroxy-3-phenyl-allyl)-1-(3,4,5-trimethoxy-phenyl)-azetidin-2-one] the figure was 0.0468 µM; with `COc1ccc(C2C(c3ccc(N)cc3)C(=O)N2c2cc(OC)c(OC)c(OC)c2)cc1N` (centres unmarked) [Compound 24, 4-(3-Amino-4-methoxy-phenyl)-3-(4-amino-phenyl)-1-(3,4,5-trimethoxy-phenyl)-azetidin-2-one], 0.03 µM. For the molecule `COc1cccc2c1C(=O)c1c(O)c3c(c(O)c1C2=O)C[C@@](O)(C(=O)CO)C[C@@H]3O[C@H]1C[C@H](N)[C@H](O)[C@H](C)O1` [Adriamycin, adriamycin], the IC50 in data set [2] came out at 42.8 nM. Also, in data set [3], 5100 nM corresponded to half-maximal inhibition (IC50) and the RF was 119.2.

Turning to `COc1ccc(C2C(c3cccs3)C(=O)N2c2cc(OC)c(OC)c(OC)c2)cc1N` (centres unmarked) [Compound 19, 4-(3-Amino-4-methoxy-phenyl)-3-thiophen-2-yl-1-(3,4,5-trimethoxy-phenyl)-azetidin-2-one], the IC50 in data set [1] was found to be 0.041 µM. Regarding `COc1ccc(C2C(c3cccc(O)c3)C(=O)N2c2cc(OC)c(OC)c(OC)c2)cc1` (centres unmarked) [Compound 22, 3-(3-Hydroxy-phenyl)-4-(4-methoxy-phenyl)-1-(3,4,5-trimethoxy-phenyl)-azetidin-2-one], the IC50 in data set [1] was determined as 0.0689 µM.

For `C=C(C)C1C(=O)N(c2cc(OC)c(OC)c(OC)c2)C1c1ccc(OC)c(O)c1` (centres unmarked) [Compound 3, 4-(3-Hydroxy-4-methoxy-phenyl)-3-isopropenyl-1-(3,4,5-trimethoxy-phenyl)-azetidin-2-one], the IC50 in data set [1] stood at 0.019 µM. Take `COc1ccc(C2C(c3ccc(F)cc3)C(=O)N2c2cc(OC)c(OC)c(OC)c2)cc1N` (centres unmarked) [Compound 17, 4-(3-Amino-4-methoxy-phenyl)-3-(4-fluoro-phenyl)-1-(3,4,5-trimethoxy-phenyl)-azetidin-2-one]: the IC50 in data set [1] turned out to be 0.055 µM. Molecule `COc1ccc(C2C(c3cccs3)C(=O)N2c2cc(OC)c(OC)c(OC)c2)cc1O` (centres unmarked) [Compound 18, 4-(3-Hydroxy-4-methoxy-phenyl)-3-thiophen-2-yl-1-(3,4,5-trimethoxy-phenyl)-azetidin-2-one] yielded a melting point of 113 to 114 °C. For the same molecule, the IC50 in data set [1] amounted to 0.007 µM.

In the case of `COc1ccc(C2C(c3ccc(O)cc3)C(=O)N2c2cc(OC)c(OC)c(OC)c2)cc1` (centres unmarked) [Compound 10, 3-(4-Hydroxy-phenyl)-4-(4-methoxy-phenyl)-1-(3,4,5-trimethoxy-phenyl)-azetidin-2-one], the melting point is 155 °C. Moreover, in data set [1], the IC50 amounted to 0.059 µM. As to `COc1ccc(C2CC(=O)N2c2cc(OC)c(OC)c(OC)c2)cc1` (centres unmarked) [Compound 26, 4-(4-Methoxyphenyl)-1-(3,4,5-trimethoxyphenyl)-azetidin-2-one], in data set [1], the IC50 was determined as 0.039 µM.

Consider `COc1ccc(C2C(c3ccc(F)cc3)C(=O)N2c2cc(OC)c(OC)c(OC)c2)cc1` (centres unmarked) [Compound 11, 3-(4-Fluoro-phenyl)-4-(4-methoxy-phenyl)-1-(3,4,5-trimethoxy-phenyl)-azetidin-2-one], for which the melting point is 120 °C. Further, in data set [1], the 50% inhibitory concentration (IC50) was 0.042 µM. Take `COc1ccc(C2C(c3ccc(N)cc3)C(=O)N2c2cc(OC)c(OC)c(OC)c2)cc1` (centres unmarked) [Compound 9, 3-(4-Amino-phenyl)-4-(4-methoxy-phenyl)-1-(3,4,5-trimethoxyphenyl)-azetidin-2-one]: the IC50 in data set [1] stood at 0.05 µM.

For the molecule `CC[C@]1(O)C[C@H]2CN(CCc3c([nH]c4ccccc34)[C@@](C(=O)OC)(c3cc4c(cc3OC)N(C=O)[C@H]3[C@@](O)(C(=O)OC)[C@H](OC(C)=O)[C@]5(CC)C=CCN6CC[C@]43[C@@H]65)C2)C1` [Vincristine, vincristine], the IC50 came to 2.2 nM in data set [4], 610 nM in data set [5], 3.1 nM in data set [2] and 1600 nM in data set [3]. For the same molecule, the RF in data set [5] amounted to 277.3; in data set [3], 516. Regarding `COc1ccc(C2[C@H](c3ccccc3)C(=O)N2c2cc(OC)c(OC)c(OC)c2)cc1OC(C)=O` (some centres unmarked) [Compound 30], the “compound remaining after 24 hours” value in data set [6] (pH 4) is recorded as 60%; in data set [6] (pH 7.4), 42%; in data set [6] (pH 9), 54%. For the molecule `COc1ccc(C2C(C(C)O)C(=O)N2c2cc(OC)c(OC)c(OC)c2)cc1O` (centres unmarked) [Compound 6, 3-(1-Hydroxy-ethyl)-4-(3-hydroxy-4-methoxy-phenyl)-1-(3,4,5-trimethoxy-phenyl)-azetidin-2-one], the IC50 in data set [1] stood at 0.0376 µM.

Take `COc1ccc(C2C(c3ccc(N)cc3)C(=O)N2c2cc(OC)c(OC)c(OC)c2)cc1O` (centres unmarked) [Compound 23, 3-(4-Amino-phenyl)-4-(3-hydroxy-4-methoxy-phenyl)-1-(3,4,5-trimethoxy-phenyl)-azetidin-2-one]: the IC50 in data set [1] was 0.004 µM. For the molecule `COc1ccc(C2C(c3ccc(F)cc3)C(=O)N2c2cc(OC)c(OC)c(OC)c2)cc1O` (centres unmarked) [Compound 16, 3-(4-Fluoro-phenyl)-4-(3-hydroxy-4-methoxy-phenyl)-1-(3,4,5-trimethoxy-phenyl)-azetidin-2-one], the IC50 in data set [1] worked out at 0.065 µM. Turning to `COc1ccc(C2C(C)C(=O)N2c2cc(OC)c(OC)c(OC)c2)cc1` (centres unmarked) [Compound 27, 4-(4-Methoxyphenyl)-3-methyl-1-(3,4,5-trimethoxyphenyl)-azetidin-2-one], the IC50 in data set [1] amounted to 0.047 µM.

Molecule `COc1ccc(C2C(c3ccsc3)C(=O)N2c2cc(OC)c(OC)c(OC)c2)cc1O` (centres unmarked) [Compound 20, 4-(3-Hydroxy-4-methoxy-phenyl)-3-thiophen-3-yl-1-(3,4,5-trimethoxy-phenyl)-azetidin-2-one] gave a melting point of 151 to 152 °C. Moreover, the IC50 in data set [1] worked out at 0.01 µM. Consider `COc1ccc([C@H]2[C@H](c3ccccc3)C(=O)N2c2cc(OC)c(OC)c(OC)c2)cc1OP(=O)(O)O` [Compound 29], for which the “compound remaining after 24 hours” value in data set [6] (pH 4), in data set [6] (pH 7.4) and in data set [6] (pH 9) was 100% throughout. As to `COc1ccc(C2[C@H](c3ccccc3)C(=O)N2c2cc(OC)c(OC)c(OC)c2)cc1OC(=O)c1ccccc1` (some centres unmarked) [Compound 31], the “compound remaining after 24 hours” value is 61% in data set [6] (pH 4), 35% in data set [6] (pH 7.4) and 76% in data set [6] (pH 9).

For `COc1ccc(C2C(c3ccsc3)C(=O)N2c2cc(OC)c(OC)c(OC)c2)cc1` (centres unmarked) [Compound 21, 4-(4-Methoxy-phenyl)-3-thiophen-3-yl-1-(3,4,5-trimethoxy-phenyl)-azetidin-2-one], the melting point amounted to 130 °C. Also, the IC50 in data set [1] was 0.06 µM. Regarding `COc1ccc(C2C(c3ccccc3)C(=O)N2c2cc(OC)c(OC)c(OC)c2)cc1N` (centres unmarked) [Compound 13, 4-(3-Amino-4-methoxy-phenyl)-3-phenyl-1-(3,4,5-trimethoxy-phenyl)-azetidin-2-one], the IC50 in data set [1] came to 0.065 µM.

Molecule `COc1ccc(C2C(c3ccc(O)cc3)C(=O)N2c2cc(OC)c(OC)c(OC)c2)cc1N` (centres unmarked) [Compound 15, 4-(3-Amino-4-methoxy-phenyl)-3-(4-hydroxy-phenyl)-1-(3,4,5-trimethoxy-phenyl)-azetidin-2-one] had a melting point of 177 °C. Also, in data set [1], the IC50 came out at 0.039 µM.

In the case of `CC(=O)O[C@H]1C(=O)[C@@]2(C)[C@H]([C@H](OC(=O)c3ccccc3)[C@]3(O)C[C@H](OC(=O)[C@H](O)[C@@H](NC(=O)c4ccccc4)c4ccccc4)C(C)=C1C3(C)C)[C@]1(OC(C)=O)CO[C@@H]1C[C@@H]2O` [Paclitaxel, paclitaxel], the IC50 in data set [4] is 4.8 nM; in data set [5] it was > 10000 nM; in data set [2], 4.2 nM; in data set [3] it was > 10000 nM. The values for the RF in data set [5] and in data set [3] were >2,083 and >2,381, respectively.

These data come from patent US20120309734A1, “COMBRETASTATIN DERIVATIVES AND USES THEREFOR” (priority 2009, published 2012).
